± gives the standard deviation of the averaged measurements.
Legend:
Experiment in all cases: relative viability vs DMSO control (72 h) (fraction); higher = more viable cells
[1] = system: RD
Procedure, shortened: (§1)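 Sarcoma cell lines in 384-well plates, seeded to reach 80–90% confluence, were given compound after 24 h and kept 72 h at 37 °C, 5% CO2, with 0.1% DMSO vehicle and a 5 µM positive control. Relative viability came from ATPLite as percent growth, averaged over up to triplicate wells. On the rescaled values, 1 equals full and 0 equals none.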

[2] = system: VA-ES-BJ
Procedure, shortened: as §1

[3] = system: HT1080
Procedure, shortened: as §1

[4] = system: KHOS-NP
Procedure, shortened: as §1

[5] = system: RD-ES
Procedure, shortened: as §1

Compound `C[C@@H]1CN(C(=O)c2ccc(NC(=O)c3cc(O[C@H](C)c4c(Cl)ccc(F)c4Cl)c(N)nn3)cc2)C[C@H](C)N1` [Ensartinib] has a relative viability ([1]; 0.00017 µM) of 1.01 ± 0.032, a relative viability ([1]; 0.00051 µM) of 1.02 ± 0.053 and a relative viability ([1]; 0.00152 µM) of 1.06 ± 0.034. The relative viability ([1]; 0.00457 µM) was 1.06 ± 0.065, the relative viability ([1]; 0.01372 µM) was 1.028 ± 0.01 and the relative viability ([1]; 0.04115 µM) was 1.028 ± 0.0074. For the same compound, the relative viability ([1]; 0.1235 µM) was 0.972 ± 0.033, the relative viability ([1]; 0.3704 µM) was 0.9011 ± 0.0084 and the relative viability ([1]; 1.111 µM) was 0.683 ± 0.03. The relative viability ([1]; 3.333 µM) was 0.561 ± 0.011, the relative viability ([1]; 10 µM) was 0.0738 ± 0.0066 and the relative viability ([2]; 0.00017 µM) was 1.05 ± 0.033. The relative viability ([2]; 0.00051 µM) was 1.02 ± 0.034, the relative viability ([2]; 0.00152 µM) was 1.03 ± 0.042 and the relative viability ([2]; 0.00457 µM) was 1.03 ± 0.062. For the same compound, the relative viability ([2]; 0.01372 µM) was 1.06 ± 0.061, the relative viability ([2]; 0.04115 µM) was 1.05 ± 0.031 and the relative viability ([2]; 0.1235 µM) was 1.02 ± 0.054. The relative viability ([2]; 0.3704 µM) was 0.855 ± 0.031, the relative viability ([2]; 1.111 µM) was 0.662 ± 0.042 and the relative viability ([2]; 3.333 µM) was 0.489 ± 0.011. For the same compound, the relative viability ([2]; 10 µM) was 0.362 ± 0.017, the relative viability ([3]; 0.00017 µM) was 1.02 ± 0.027 and the relative viability ([3]; 0.00051 µM) was 1 ± 0.06. The relative viability ([3]; 0.00152 µM) was 0.993 ± 0.012, the relative viability ([3]; 0.00457 µM) was 1.03 ± 0.019 and the relative viability ([3]; 0.01372 µM) was 1.03 ± 0.028. For the same compound, the relative viability ([3]; 0.04115 µM) was 0.9998 ± 0.0066, the relative viability ([3]; 0.1235 µM) was 1.04 ± 0.029 and the relative viability ([3]; 0.3704 µM) was 1.04 ± 0.034. It also gave a relative viability ([3]; 1.111 µM) of 1.02 ± 0.045, a relative viability ([3]; 3.333 µM) of 0.837 ± 0.0086 and a relative viability ([3]; 10 µM) of 0.0183 ± 0.0025. For the same compound, the relative viability ([4]; 0.00017 µM) was 1.02 ± 0.018, the relative viability ([4]; 0.00051 µM) was 1.04 ± 0.05 and the relative viability ([4]; 0.00152 µM) was 1.03 ± 0.021. It also gave a relative viability ([4]; 0.00457 µM) of 1.03 ± 0.029, a relative viability ([4]; 0.01372 µM) of 1.04 ± 0.014 and a relative viability ([4]; 0.04115 µM) of 1.03 ± 0.017. For the same compound, the relative viability ([4]; 0.1235 µM) was 1.03 ± 0.04, the relative viability ([4]; 0.3704 µM) was 1.03 ± 0.03 and the relative viability ([4]; 1.111 µM) was 1.02 ± 0.013. It also gave a relative viability ([4]; 3.333 µM) of 0.987 ± 0.025, a relative viability ([4]; 10 µM) of 0.422 ± 0.069 and a relative viability ([5]; 0.00017 µM) of 0.97 ± 0.035. For the same compound, the relative viability ([5]; 0.00051 µM) was 0.951 ± 0.032, the relative viability ([5]; 0.00152 µM) was 0.989 ± 0.042 and the relative viability ([5]; 0.00457 µM) was 0.963 ± 0.025. It also gave a relative viability ([5]; 0.01372 µM) of 0.985 ± 0.038, a relative viability ([5]; 0.04115 µM) of 0.974 ± 0.039 and a relative viability ([5]; 0.1235 µM) of 0.975 ± 0.029. The relative viability ([5]; 0.3704 µM) was 0.826 ± 0.051, the relative viability ([5]; 1.111 µM) was 0.567 ± 0.031 and the relative viability ([5]; 3.333 µM) was 0.0894 ± 0.0084. For the same compound, the relative viability ([5]; 10 µM) was 0.00693 ± 0.00035.
Compound `C=CC(=O)N1CCC(CNc2ncnc(N)c2-c2ccc(Oc3ccccc3)cc2)CC1` [Evobrutinib] has a relative viability ([1]; 0.00017 µM) of 1.06 ± 0.066, a relative viability ([1]; 0.00051 µM) of 1.09 ± 0.062 and a relative viability ([1]; 0.00152 µM) of 1.09 ± 0.051. The relative viability ([1]; 0.00457 µM) was 1.08 ± 0.05, the relative viability ([1]; 0.01372 µM) was 1.11 ± 0.045 and the relative viability ([1]; 0.04115 µM) was 1.11 ± 0.065. The relative viability ([1]; 0.1235 µM) was 1.12 ± 0.03, the relative viability ([1]; 0.3704 µM) was 1.09 ± 0.088 and the relative viability ([1]; 1.111 µM) was 1.08 ± 0.046. It also gave a relative viability ([1]; 3.333 µM) of 1.07 ± 0.074, a relative viability ([1]; 10 µM) of 1.11 ± 0.04 and a relative viability ([2]; 0.00017 µM) of 1.1 ± 0.028. It also gave a relative viability ([2]; 0.00051 µM) of 1.08 ± 0.027, a relative viability ([2]; 0.00152 µM) of 1.07 ± 0.012 and a relative viability ([2]; 0.00457 µM) of 1.08 ± 0.043. It also gave a relative viability ([2]; 0.01372 µM) of 1.09 ± 0.048, a relative viability ([2]; 0.04115 µM) of 1.043 ± 0.0079 and a relative viability ([2]; 0.1235 µM) of 1.06 ± 0.017. The relative viability ([2]; 0.3704 µM) was 1.06 ± 0.046, the relative viability ([2]; 1.111 µM) was 1.06 ± 0.042 and the relative viability ([2]; 3.333 µM) was 1.1 ± 0.038. The relative viability ([2]; 10 µM) was 1.1 ± 0.032, the relative viability ([3]; 0.00017 µM) was 1.11 ± 0.033 and the relative viability ([3]; 0.00051 µM) was 1.1 ± 0.03. It also gave a relative viability ([3]; 0.00152 µM) of 1.1 ± 0.021, a relative viability ([3]; 0.00457 µM) of 1.14 ± 0.06 and a relative viability ([3]; 0.01372 µM) of 1.082 ± 0.002. The relative viability ([3]; 0.04115 µM) was 1.08 ± 0.023, the relative viability ([3]; 0.1235 µM) was 1.091 ± 0.0021 and the relative viability ([3]; 0.3704 µM) was 1.078 ± 0.0066. It also gave a relative viability ([3]; 1.111 µM) of 1.07 ± 0.057, a relative viability ([3]; 3.333 µM) of 1.1 ± 0.012 and a relative viability ([3]; 10 µM) of 1.08 ± 0.018. The relative viability ([4]; 0.00017 µM) was 1.11 ± 0.014, the relative viability ([4]; 0.00051 µM) was 1.13 ± 0.031 and the relative viability ([4]; 0.00152 µM) was 1.13 ± 0.016. It also gave a relative viability ([4]; 0.00457 µM) of 1.13 ± 0.031, a relative viability ([4]; 0.01372 µM) of 1.12 ± 0.028 and a relative viability ([4]; 0.04115 µM) of 1.128 ± 0.0056. For the same compound, the relative viability ([4]; 0.1235 µM) was 1.12 ± 0.028, the relative viability ([4]; 0.3704 µM) was 1.12 ± 0.034 and the relative viability ([4]; 1.111 µM) was 1.12 ± 0.032. For the same compound, the relative viability ([4]; 3.333 µM) was 1.12 ± 0.03, the relative viability ([4]; 10 µM) was 1.12 ± 0.022 and the relative viability ([5]; 0.00017 µM) was 0.985 ± 0.011. For the same compound, the relative viability ([5]; 0.00051 µM) was 1 ± 0.038, the relative viability ([5]; 0.00152 µM) was 0.99 ± 0.018 and the relative viability ([5]; 0.00457 µM) was 1 ± 0.0049. It also gave a relative viability ([5]; 0.01372 µM) of 1 ± 0.034, a relative viability ([5]; 0.04115 µM) of 1.03 ± 0.012 and a relative viability ([5]; 0.1235 µM) of 1.01 ± 0.017. The relative viability ([5]; 0.3704 µM) was 0.981 ± 0.021, the relative viability ([5]; 1.111 µM) was 0.9603 ± 0.0071 and the relative viability ([5]; 3.333 µM) was 0.976 ± 0.021. The relative viability ([5]; 10 µM) was 0.946 ± 0.025.
